Source: the NIST ThermoML archive (doi:10.1016/j.jct.2005.05.003)

Settings: Liquid, Vibrating tube method

CO [methanol]
Settings | mass density [kg/m3]
298.26 K, 235 kPa | 785.98
298.26 K, 5000 kPa | 790.69
298.26 K, 9999 kPa | 795.4
298.26 K, 15013 kPa | 799.88
298.26 K, 19987 kPa | 804.1
298.26 K, 25008 kPa | 808.17
298.26 K, 29997 kPa | 812.04
298.26 K, 34991 kPa | 815.76
298.26 K, 39981 kPa | 819.34
323.22 K, 270 kPa | 762.14
323.22 K, 4990 kPa | 767.53
323.22 K, 9984 kPa | 772.87
323.22 K, 14982 kPa | 777.91
323.22 K, 19989 kPa | 782.69
323.22 K, 24986 kPa | 787.21
323.22 K, 29995 kPa | 791.53
323.22 K, 34987 kPa | 795.64
323.22 K, 39993 kPa | 799.6
348.25 K, 366 kPa | 737.29
348.25 K, 4987 kPa | 743.46
348.25 K, 9986 kPa | 749.65
348.25 K, 14991 kPa | 755.42
348.25 K, 20004 kPa | 760.84
348.25 K, 25020 kPa | 765.94
348.25 K, 30013 kPa | 770.76
348.25 K, 34989 kPa | 775.32
348.25 K, 40000 kPa | 779.7
373.26 K, 534 kPa | 710.55
373.26 K, 4983 kPa | 717.67
373.26 K, 9990 kPa | 724.99
373.26 K, 14998 kPa | 731.69
373.26 K, 19985 kPa | 737.88
373.26 K, 24994 kPa | 743.68
373.26 K, 29997 kPa | 749.13
373.26 K, 35001 kPa | 754.27
373.26 K, 39996 kPa | 759.14
398.28 K, 934 kPa | 680.93
398.28 K, 4984 kPa | 689
398.28 K, 9998 kPa | 697.91
398.28 K, 14986 kPa | 705.88
398.28 K, 19987 kPa | 713.16
398.28 K, 24992 kPa | 719.87
398.28 K, 29991 kPa | 726.11
398.28 K, 35005 kPa | 731.99
398.28 K, 40004 kPa | 737.47
